Structures can show the parent of a compound that is named as a salt.
Columns and labels:
[1] = system: leukotriene B4 synthesis in white blood cells; experiment: Test 3: LTB4 formation by white blood cells; format: cell-based; settings: Homo sapiens; 10 μM; read-out: Test 3 residual activity (LTB4 formation), percent of control
Protocol: TEST 3. LTB4 formation by white blood cells
Isolation of white blood cells:
40 ml of human blood were mixed with 8 ml of 6% dextran solution (dextran, mw: 480,000 in PM16). After one hour at room temperature, the supernatant,which was composed of white blood cells, was removed, diluted with an equal volume of PM16, and centrifuged for 15 minutes at 300×g (1600 rpm). The sediment was next resuspended in approximately 5-6 ml of PM16 and, once the cell count had been determined in a Coulter Counter, adjusted to 10^7 cells/ml.
The test mixture comprised 0.24 ml of cell suspension, 0.03 ml of 20 mM CaCl2 /5 mM MgCl2 and 5 μl of test substance. Following 15 minutes of preincubation at 37° C., the reaction was started with 0.03 ml of A23187/glutathione (100 μg of A23187/ml; 15.4 μg of glutathione/ml). The incubation was terminated after 5 minutes at 37° C. by immediate cooling of the samples down to 0° C. After centrifuging for 2 minutes in an Eppendorff Centrifuge (0° C.), the supernatant was removed and examined chromatographically.
High pressure liquid chromatography (HPLC): the HPLC equipment comprises a Kratos pump (Spectro-flow 400), a cooled automatic BT 7041 sample injector (Biotronik) having a 75 μl sample loop, a Nucleosil C18 column (100*3 mm, 5 μm particles of Chrompack), a UV detector (Kratos) Spectroflow 757 (wavelength: 280 nm, measurement range: 0.1 AUFS, time constant: 0.5 s) and a Spectra Physics integrator (SP 4270). The eluent (725 ml of methanol, 275 ml of water and 0.1 ml of acetic acid) was supplied at a flow rate of 0.7 ml/minute and at a pressure of about 100 bar.
When doing this, the measurement range which has been set can be examined and altered if necessary. It is also vital to measure the test substances at the particular test concentration (e.g.: 10^-5 M) in PM16 before the cell incubation, since the test substances might conceal the LTB4 peak. If this is the case, a lower concentration must be selected.
(§1) The values in the table show the concentration of the test substance which was employed in μM and, besides this, the residual activity measured in percent based on the control, which was set to be 100%. The interleukin is additionally indicated in test 4.

[2] = system: cyclooxygenase-dependent thrombocyte aggregation; experiment: Test 5: Cyclooxygenase-dependent thrombocyte aggregation; format: cell-based, human; settings: arachidonic acid as inducer; for activity at 100 µM / activity at 25 µM: Homo sapiens, read-out: Test 5 residual activity (cyclooxygenase-dependent thrombocyte aggregation), percent of control; for Test 5 residual activity (cyclooxygenase-dependent thrombocyte aggregation), percent of control / activity at 25 µM: 25 μM; for Test 5 residual activity (cyclooxygenase-dependent thrombocyte aggregation), percent of control: hydrochloride
Protocol: TEST 5. Cyclooxygenase-dependent thrombocyte aggregation
Platelet-rich plasma (PRP): to inhibit coagulation, human blood was treated with 1/10 of its volume of 3.8% sodium citrate solution. Centrifugation then takes place at 105×g for 20 minutes and the supernatant (PRP) is removed. 200 μl of PRP were preincubated, at 37° C. for 10 minutes, together with 30 μl of test substance in a PAP4 aggregometer (BioData). The test substance was dissolved in organic solvent and diluted 1:30 with buffer (50 mM TisHCl, pH 8.0; 90 mM NaCl). Aggregation is triggered with 20 μl of inducer. During the aggregation, stirring takes place at 800 rpm. Arachidonic acid, 5 mg/ml, was used as the inducer.
as §1

[3] = system: adjuvant/arthritis model; experiment: Test 6: antiarthritic effect in the adjuvant/arthritis model; format: in vivo, rat (Wistar-Lewis); settings: daily for 17 days, rat; for inhibition in vivo at 50 mg/kg / inhibition in vivo at 25 mg/kg / inhibition in vivo at 20 mg/kg: Rattus norvegicus, po, 408 h, read-out: Test 6 Paw volume (% inhibition); for inhibition in vivo at 50 mg/kg: 50 mg/kg orally; for Test 6 Paw volume (% inhibition) / inhibition in vivo at 25 mg/kg: 25 mg/kg orally; for Test 6 Paw volume (% inhibition): hydrochloride; for inhibition in vivo at 20 mg/kg: 20 mg/kg orally
Protocol: Male rats of a Wistar-Lewis strain (Mollegaard/Denmark) were used as experimental animals. The body weight is between 160 and 200 g. Subplantar injection of 0.1 ml of Freund's adjuvant (=6 mg of Mycobacterium butyricum suspension, Difco Lab./Detroit, Mich. USA, per ml of heavy white paraffin oil, Merck, Darmstadt) into the root of the tail resulted, on the 10th to 14th day of the experiment, in immunopathological processes and chronic inflammations, particularly in the form of arthritic and periarthritic symptoms, at other sites in the body (secondary lesions). The animals were fed ad libitum with the standard feed Altromin-R, from Altrogge, Lage, and provided with tap water. The animals were given 60 mg of codein per kg as an analgesic from the 14th day to the end of the experiment. The test substances were administered orally as a CMC suspension, in an injection volume of 1 ml/100 g of body weight, on each day (in all for 17 days), beginning on the day of the adjuvant administration. The volumes of each of the hind paws, and the body weight, were measured on the first and on the 18th day of the experiment. Diminution in the increase of paw volume, as compared with the untreated control group, served as the criterion of activity, with the two hind paws being averaged.

[4] = system: polymorphonuclear leucocytes (PMNL); experiment: Test 1: Release of proteolytic activity from human PMNL; format: cell-based; settings: for Test 1 residual activity (release of proteolytic activity), percent of control: hydrochloride; for activity at 10 µM / activity at 100 µM / activity at 1 µM: Homo sapiens, PMNL, read-out: Test 1 residual activity (release of proteolytic activity), percent of control
Protocol: Isolation of polymorphonuclear leucocytes (PMNL) from human peripheral blood for carrying out tests 1 and 2 10 ml of human blood were diluted with 10 ml of HBSS (Serva) and underlaid with 15 ml of Lymphoprep (Dr. Molter GmbH, Heidelberg). […] A white ring, composed of mononuclear cells, is located between these two phases. The lowermost phase is composed of erythrocytes which are covered with a white layer of PMNL. The uppermost phase, and also the Lymphoprep and the white ring, were carefully removed using a syringe. The remaining sediment was carefully resuspended in 15 ml of 3% dextran in PM16 (mw: 485,000, Sigma, Deisenhofen). The suspension was then left to stand at room temperature for one hour. During this time, the erythrocytes sedimented while the PMNL remained in the supernatant. The supernatant was removed, diluted with an approximately equal volume of PM16, and centrifuged for 15 minutes at 400×g. Should the PMNL sediment be heavily contaminated with erythrocytes, it is necessary to carry out a hypotonic lysis. To do this, the sediment was resuspended in 750 μl of water. After exactly 15 seconds, the suspension was diluted with approximately 7 ml of PM16 and centrifuged for 10 minutes at 400×g. If necessary, this lysis was repeated once more. Otherwise, the PMNL sediment was resuspended in a suitable medium. 250 μl of PMNL (5·10^6 cells/ml of PBS containing 7.5 mM glucose) were incubated at 37° C. for 20 minutes with 1 μl of test substance. 1 μl of cytochalasin B (5 μg/ml of test mixture) was then added and the mixture was incubated at 37° C. for a further 5 minutes. Following the addition of 1 μl of […] necrosis factor alpha (TNF; 30 ng/ml of test mixture), the incubation was continued for 5 minutes. The release was started using 1 μl of fMLP (10 nmol/l of test mixture). After 60 minutes at 37° C., the reaction was terminated by cooling the samples down to 0° C. The samples were then centrifuged, and the supernatant was removed and frozen down. Cytochalasin B and fMLP were dissolved in DMSO and TNF was diluted with buffer. 50 μl of the supernatant were mixed with 175 μl of buffer (100 mM HEPES, pH 7.5; 500 mM NaCl) in a 96-well microtiter plate. Following the addition of 25 μl of substrate (methoxysuccinyl-[…]-nitroanilide), the extinction of each well was measured at 405 nm after 0, 5, 10, 15, 30 and 60 minutes. […] The interleukin is additionally indicated in test 4.

[5] = system: tumor cell line 20-10-5S (hybridoma cell line); experiment: Test 8: Inhibition of tumor cell proliferation; format: cell-based; settings: 48 h + 16 h tritiated thymidine incorporation; 20-10-5S cells

SMILES: CC(C)(C)c1cc(C2CC(c3ccncc3)=NO2)cc(C(C)(C)C)c1O (stereo not shown) [Example 60, 3-(4-Pyridyl)-5-(4-hydroxy-3,5-di-tert-butylphenyl)-2-isoxazoline]
- activity at 10 µM [1]: 88%

SMILES: CCCCCCCCCCCCCCCC(=O)O[C@H](C)[C@@H]1CC(c2cc(C(C)(C)C)c(O)c(C(C)(C)C)c2)=NO1 (relative stereo) [Example 81, 1-(3-(4-Hydroxy-3,5-di-tert-butylphenyl)-2-isoxazolin-5-yl)ethyl hexadecanoate (erythro isomer)]
- activity at 100 µM [2]: 100%
- inhibition in vivo at 50 mg/kg [3]: 67%

SMILES: CC(OC(=O)[C@@H](N)Cc1ccccc1)c1cc(-c2cc(C(C)(C)C)c(O)c(C(C)(C)C)c2)no1.Cl (single isomer, unassigned) [Example 72, L-Phenylalanine-1-(3-(4-hydroxy-3,5-di-tert-butylphenyl)isoxazol-5-yl)ethylester hydrochloride]
- Test 1 residual activity (release of proteolytic activity), percent of control ([4]; 1 μM): 82%
- Test 1 residual activity (release of proteolytic activity), percent of control ([4]; 10 μM): 51%
- Test 5 residual activity (cyclooxygenase-dependent thrombocyte aggregation), percent of control [2]: 100%
- IC50 [5]: 5 to 10 µM
- Test 6 Paw volume (% inhibition) [3]: 60%

SMILES: CC(C)(C)c1cc(-c2cc(CCCCO)on2)cc(C(C)(C)C)c1O [Example 27]
- activity at 100 µM [2]: 97%
- IC50 [5]: < 5 µM
- inhibition in vivo at 50 mg/kg [3]: 71%

SMILES: CC(OC(=O)CN)c1cc(-c2cc(C(C)(C)C)c(O)c(C(C)(C)C)c2)no1 (stereo not shown) [Example 76, Glycine-1-(3-(4-hydroxy-3,5-di-tert-butylphenyl)isoxazol-5-yl)ethyl ester hydrochloride]
- activity at 10 µM ([4]; 10 μM): 68%
- activity at 100 µM [4]: 9%
- activity at 25 µM [2]: 99%
- IC50 [5]: 20 µM
- inhibition in vivo at 50 mg/kg [3]: 70%

SMILES: CC(OC(=O)[C@@H](N)Cc1ccccc1)C1CC(c2cc(C(C)(C)C)c(O)c(C(C)(C)C)c2)=NO1 (single isomer, unassigned) [Example 74, L-Phenylalanine-1-(3-(4-hydroxy-3,5-di-tert-butylphenyl)isoxazolin-5-yl)ethyl ester hydrochloride]
- activity at 10 µM ([4]; 10 μM): 64%
- activity at 25 µM [2]: 95%
- IC50 [5]: 5 to 10 µM
- inhibition in vivo at 25 mg/kg [3]: 60%

SMILES: CC(C)(C)c1cc(C2=NOC3(CCC3)C2)cc(C(C)(C)C)c1O [Example 67]
- IC50 [5]: < 5 µM
- inhibition in vivo at 50 mg/kg [3]: 53%

SMILES: CC(O)CC1CC(c2cc(C(C)(C)C)c(O)c(C(C)(C)C)c2)=NO1 (stereo not shown) [Example 15]
- IC50 [5]: 8 to 15 µM
- inhibition in vivo at 50 mg/kg [3]: 60%

SMILES: C[C@@H](OC(=O)c1ccc(CN2CCOCC2)cc1)[C@@H]1CC(c2cc(C(C)(C)C)c(O)c(C(C)(C)C)c2)=NO1 (relative stereo) [Example 86, 1-(3-(4-Hydroxy-3,5-di-tert-butylphenyl)-2-isoxazolin-5-yl)ethyl 4-(4-morpholino)methylbenzoate hydrochloride]
- IC50 [5]: < 5 µM
- inhibition in vivo at 20 mg/kg [3]: 70%

SMILES: C[C@H](OC(=O)c1ccc(CN2CCOCC2)cc1)[C@@H]1CC(c2cc(C(C)(C)C)c(O)c(C(C)(C)C)c2)=NO1 (relative stereo) [Example 87, 1-(3-(4-Hydroxy-3,5-di-tert-butylphenyl)-2-isoxazolin-5-yl)ethyl 4-(4-morpholino)methylbenzoate hydrochloride]
- IC50 [5]: < 5 µM
- inhibition in vivo at 20 mg/kg [3]: 50%

SMILES: CC(OC(=O)[C@@H](N)Cc1ccccc1)C1CC(c2cc(C(C)(C)C)c(O)c(C(C)(C)C)c2)=NO1 (single isomer, unassigned) [Example 75, L-Phenylalanine-1-(3-(4-hydroxy-3,5-di-tert-butylphenyl)isoxazolin-5-yl)ethyl ester hydrochloride]
- Test 1 residual activity (release of proteolytic activity), percent of control ([4]; 10 μM): 49%
- activity at 1 µM ([4]; 1 μM): 89%
- Test 5 residual activity (cyclooxygenase-dependent thrombocyte aggregation), percent of control [2]: 98%
- IC50 [5]: 5 to 10 µM
- Test 6 Paw volume (% inhibition) [3]: 76%

SMILES: CC(C)(C)c1cc(C2=NO[C@H]([C@@H](O)CO)C2)cc(C(C)(C)C)c1O (relative stereo) [Example 90, 3-(3,5-Di-tert-butyl-4-hydroxyphenyl)-5-(1,2-dihydroxyethyl)-2-isoxazoline,rac. threo isomer]
- IC50 [5]: 30 µM
- inhibition in vivo at 50 mg/kg [3]: 36%

SMILES: CC(OC(=O)[C@@H](N)Cc1ccccc1)c1cc(-c2cc(C(C)(C)C)c(O)c(C(C)(C)C)c2)no1 (single isomer, unassigned) [Example 71, L-Phenylalanine-1-(3-(4-hydroxy-3,5-di-tert-butylphenyl)isoxazol-5-yl)ethylester hydrochloride]
- activity at 1 µM ([4]; 1 μM): 79%
- activity at 10 µM ([4]; 10 μM): 42%
- activity at 25 µM [2]: 97%
- IC50 [5]: 5 to 10 µM
- inhibition in vivo at 25 mg/kg [3]: 66%

SMILES: CC(O)Cc1cc(-c2cc(C(C)(C)C)c(O)c(C(C)(C)C)c2)no1 (stereo not shown) [Example 30]
- IC50 [5]: 5 to 10 µM
- inhibition in vivo at 50 mg/kg [3]: 63%

SMILES: CC(C)(C)c1cc(-c2cc(C=O)on2)cc(C(C)(C)C)c1O [Example 66]
- IC50 [5]: < 5 µM
- inhibition in vivo at 25 mg/kg [3]: 59%

SMILES: C[C@@H](OC(=O)CN)[C@@H]1CC(c2cc(C(C)(C)C)c(O)c(C(C)(C)C)c2)=NO1 (relative stereo) [Example 77, Glycine-1-(3-(4-hydroxy-3,5-di-tert-butylphenyl)-2-isoxazoline-5-yl)ethyl ester hydrochloride]
- activity at 10 µM ([4]; 10 μM): 74%
- activity at 100 µM [4]: 30%
- activity at 25 µM [2]: 100%
- IC50 [5]: 20 µM
- inhibition in vivo at 50 mg/kg [3]: 82%

From patent publication US5814627A, “3, 5-disubstituted and 3, 4, 5-trisubstituted 2-isoxazolines and isoxazoles, process for their preparation and their use as pharmaceuticals” (Hoechst Aktienegesellschaft, priority 1994, dated 1998)
